Data published in patent US20140045858A1, “COMPOUND P[…] ALZHEIMER'S DISEASE AND PREPARATION METHOD THEREOF” (priority 2011, published 2014).

What was measured:
[1] = tested on: rats' cholinergic and oxidative systems; assay: Pharmacodynamic study, overall conclusions (rat amnesia model); format: in vivo; conditions: conclusion from Groups 3, 6 and 7, single-component patches
Source text: Finally, the activities/contents of AChE, SOD, GSH-Px and MDA in Groups 3-5 approximate to those in the blank control group, that is to say, the levels of oxidase in rat's cholinergic and oxidative systems in the various delivery groups are close to normal level.

[2] = oral delivery; cited from earlier work

With `C/C=C1\[C@H]2C=C(C)C[C@]1(N)c1ccc(=O)[nH]c1C2` [huperzine A] the anti-oxidation effect [1] was “certain effect of anti-oxidation” and the “function of anti-cholinergic damage” value [1] was “certain function of anti-cholinergic damage”.

In the case of `Cc1nc(C)c(C)nc1C.O=P(O)(O)O` [tetramethylpyrazine phosphate], the anti-oxidation effect [1] is listed as “very strong anti-oxidation effect”, the “function of anti-cholinergic damage” value [1] is listed as “relatively poor function of anti-cholinergic damage” and the “half life (t½)” value [2] is listed as 2.89 h.
